The values that follow are results of earlier work, collected in patent US20190154648A1, “METHODS OF ATTENUATING DRUG EXCIPIENT CROSS REACTIVITY” (Chesapeake Therapeutics, LLC, priority 2016, published 2019).

Counter-ions that a name gives are not always drawn.

The conditions of data set [1]: in vivo.

With `OCCOCCN1CCN(C2=Nc3ccccc3Sc3ccccc32)CC1` [quetiapine fumarate], the single-dose toxicity entry in data set [1] was “low”. The “mechanistically unexplainable side effects in repeat-dose toxicity studies” value in the data set on nonhuman primates was “pigmentation of the thyroid, transient increases in heart rate, posterior triangular cataracts, and reduced lymphocyte count”.
